Results: ChEMBL document CHEMBL1155896, “2-Amino-6-furan-2-yl-4-substituted nicotinonitriles as A2A adenosine receptor antagonists” (J Med Chem, 2008)

How the values were obtained:
[1] = target: T1, Adenosine receptor A3 (Homo sapiens) (UniProt P0DMS8); assay: Displacement of [3H]AB-MECA from human adenosine A3 receptor expressed in HEK293 cell membrane at 1 uM; format: cell membranes
T1 sequence (whole entry): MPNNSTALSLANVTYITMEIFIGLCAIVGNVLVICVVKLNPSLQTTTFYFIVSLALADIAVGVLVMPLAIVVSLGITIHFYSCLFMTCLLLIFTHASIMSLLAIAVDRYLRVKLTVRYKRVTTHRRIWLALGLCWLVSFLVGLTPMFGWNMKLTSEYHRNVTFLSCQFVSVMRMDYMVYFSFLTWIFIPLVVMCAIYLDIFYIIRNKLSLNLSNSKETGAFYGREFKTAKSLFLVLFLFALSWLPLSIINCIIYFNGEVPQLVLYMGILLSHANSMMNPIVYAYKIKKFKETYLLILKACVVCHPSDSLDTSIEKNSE

Adenosine receptor A2a [2] = target: T2, Adenosine receptor A2a (Homo sapiens, UniProt P29274); assay: Displacement of [3H]ZM241385 from human adenosine A2A receptor expressed in HEK293 cell membrane at 1 uM; format: cell membranes
T2 sequence (P29274 whole entry): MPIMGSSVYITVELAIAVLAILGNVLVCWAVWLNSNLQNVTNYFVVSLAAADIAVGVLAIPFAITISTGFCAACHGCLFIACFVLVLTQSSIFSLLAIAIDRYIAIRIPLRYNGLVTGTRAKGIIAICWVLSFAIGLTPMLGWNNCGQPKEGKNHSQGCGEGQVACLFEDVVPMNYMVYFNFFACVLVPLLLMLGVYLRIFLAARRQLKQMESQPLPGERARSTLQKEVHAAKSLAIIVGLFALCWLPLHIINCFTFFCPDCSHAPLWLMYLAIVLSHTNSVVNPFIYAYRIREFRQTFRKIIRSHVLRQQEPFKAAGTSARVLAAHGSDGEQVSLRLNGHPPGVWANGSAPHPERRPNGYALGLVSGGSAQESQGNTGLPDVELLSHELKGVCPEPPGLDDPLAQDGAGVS

[3] = target: T3, Adenosine receptor A2b (Homo sapiens) (UniProt P29275); assay: Displacement of [3H]MRS1754 from human adenosine A2B receptor expressed in CHO cell membrane at 1 uM; format: cell membranes
T3 sequence (whole entry): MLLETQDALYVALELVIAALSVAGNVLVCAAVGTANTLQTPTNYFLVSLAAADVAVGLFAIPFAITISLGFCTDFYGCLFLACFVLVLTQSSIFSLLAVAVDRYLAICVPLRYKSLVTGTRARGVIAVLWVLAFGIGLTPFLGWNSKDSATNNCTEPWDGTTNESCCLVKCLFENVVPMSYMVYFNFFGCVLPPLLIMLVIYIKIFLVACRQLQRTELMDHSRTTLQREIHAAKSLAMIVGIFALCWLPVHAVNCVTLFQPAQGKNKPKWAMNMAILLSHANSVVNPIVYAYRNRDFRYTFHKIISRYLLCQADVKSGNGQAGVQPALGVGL

[4] = target: T4, Adenosine receptor A1 (Homo sapiens) (UniProt P30542); assay: Displacement of [3H]DPCPX from human adenosine A1 receptor expressed in CHO cell membrane at 1 uM; format: cell membranes
T4 sequence (whole entry): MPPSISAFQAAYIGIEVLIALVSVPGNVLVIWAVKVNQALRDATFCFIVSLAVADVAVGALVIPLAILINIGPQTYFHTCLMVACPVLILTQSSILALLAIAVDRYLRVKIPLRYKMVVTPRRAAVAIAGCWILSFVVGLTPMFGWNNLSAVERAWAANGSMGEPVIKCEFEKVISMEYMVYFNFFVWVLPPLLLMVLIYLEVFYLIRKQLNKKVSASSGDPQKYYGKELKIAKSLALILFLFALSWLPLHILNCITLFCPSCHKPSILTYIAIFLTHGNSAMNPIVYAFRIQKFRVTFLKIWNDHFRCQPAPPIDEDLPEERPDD

Adenosine receptor A2b = target: T5, Adenosine receptor A2b (Homo sapiens, UniProt P29275); assay: Displacement of [3H]MRS1754 from human adenosine A2B receptor expressed in CHO cell membrane; format: cell membranes
T5 sequence (P29275 whole entry): T3 sequence (whole entry)

Adenosine receptor A2a [5] = target: T2, Adenosine receptor A2a; assay: biochemical
Adenosine receptor A1 = target: T6, Adenosine receptor A1 (Homo sapiens, UniProt P30542); assay: biochemical
T6 sequence (P30542 whole entry): T4 sequence (whole entry)

Adenosine receptor A2a [6] = target: T2, Adenosine receptor A2a
Description: Binding affinity to human adenosine A2A receptor

Adenosine receptor A3 = target: T7, Adenosine receptor A3 (Homo sapiens, UniProt P0DMS8); assay: biochemical
T7 sequence (P0DMS8 whole entry): T1 sequence (whole entry)

Adenosine receptor A2a [7] = target: T2, Adenosine receptor A2a; assay: Displacement of [3H]ZM241385 from human adenosine A2A receptor expressed in HEK293 cell membrane

| Compound | Activity [1] | Activity [3] | Ki (Adenosine receptor A2a [5]) | Ki (Adenosine receptor A1) | further results |
| --- | --- | --- | --- | --- | --- |
| CN(C)c1ccc(-c2cc(-c3ccccc3)nc(N)c2C#N)cc1 | 2% | 4% | – | – | Activity (Adenosine receptor A2a [2]): 1%; Activity [4]: 12% |
| N#Cc1c(-c2cccs2)cc(-c2ccco2)nc1N | 51% | – | 0.0014 µM | 0.028 µM | Ki (Adenosine receptor A2b): 0.075 µM |
| COc1ccccc1-c1cc2nc(-c3ccco3)nn2c(N)n1 | – | – | – | – | Ki (Adenosine receptor A2a [6]): 0.0043 µM |
| CC(O)(C#Cc1cn2nc(-c3ccco3)nc2c(N)n1)Cc1ccncc1 (centres undefined) | – | – | – | – | Ki (Adenosine receptor A2a [6]): 0.0011 µM |
| Nc1nc2c(cnn2CCc2ccc(S(=O)(=O)N(CCO)CCO)cc2)c2nc(-c3ccco3)nn12 | – | – | – | – | Ki (Adenosine receptor A2a [6]): 0.00012 µM |
| N#Cc1c(-c2ccco2)cc(-c2ccco2)nc1N | 33% | – | 0.001 µM | 0.012 µM | Ki (Adenosine receptor A2b): 0.034 µM |
| CC(C)Oc1ccc(-c2cc(-c3ccco3)nc(N)c2C#N)cc1 | 7% | 8% | – | – | Activity (Adenosine receptor A2a [2]): 6%; Activity [4]: 19% |
| N#Cc1c(-c2ccco2)cc(-c2ccccc2)nc1N | 29% | – | 0.019 µM | 0.0058 µM | Ki (Adenosine receptor A2b): 0.22 µM |
| CC(C)(C)OC(=O)N1CCN(c2cccc(-c3cc4nc(-c5ccco5)nn4c(N)n3)c2)CC1 | – | – | – | – | Ki (Adenosine receptor A2a [6]): 0.0005 µM |
| Nc1nc(C(=O)NCCc2ccc(O)cc2)cn2nc(-c3ccco3)nc12 | – | – | – | – | Ki (Adenosine receptor A2a [6]): 0.001 µM |
| N#Cc1c(-c2ccc(-c3ccccc3)cc2)cc(-c2ccco2)nc1N | 4% | 17% | – | – | Activity (Adenosine receptor A2a [2]): 0%; Activity [4]: 0% |
| Nc1nc(CN[C@H]2CCCN2Cc2ccnc(Cl)c2)nc2nc(-c3ccco3)nn12 | – | – | – | – | Ki (Adenosine receptor A2a [6]): 0.004 µM |
| N#Cc1c(-c2cccs2)cc(-c2ccccc2)nc1N | 11% | 44% | 0.054 µM | 0.022 µM | – |
| N#Cc1c(-c2ccco2)cc(-c2cccs2)nc1N | 39% | – | 0.012 µM | 0.029 µM | Ki (Adenosine receptor A2b): 0.38 µM |
| COc1ccc(-c2cc(-c3ccccc3)nc(N)c2C#N)cc1OC | 32% | 13% | 0.16 µM | 0.066 µM | – |
| CC(C)c1ccc2c(c1)-c1nc(N)nc(-c3ccc(Br)o3)c1C2 | – | – | – | – | Ki (Adenosine receptor A2a [6]): 0.0008 µM |
| Nc1nc(N2CCN3C[C@@H](COc4cccc(F)c4)CC[C@H]3C2)nc2nc(-c3ccco3)nn12 | – | – | – | – | Ki (Adenosine receptor A2a [6]): 0.0002 µM |
| N#Cc1c(-c2ccc(O)cc2)cc(-c2ccco2)nc1N | 34% | – | 0.041 µM | 0.054 µM | Ki (Adenosine receptor A2b): 0.37 µM |
| N#Cc1c(-c2ccccc2)cc(-c2ccco2)nc1N | 28% | – | 0.011 µM | 0.028 µM | Ki (Adenosine receptor A2b): 0.17 µM |
| OC[C@H]1O[C@@H](n2cnc3c(NC4CCCC4)ncnc32)[C@H](O)[C@@H]1O [N6-CYCLOPENTYLADENOSINE] | – | – | 1.7 µM | – | – |
| N#Cc1c(-c2ccc3c(c2)OCO3)cc(-c2ccco2)nc1N | – | 24% | 0.026 µM | 0.011 µM | Ki (Adenosine receptor A3): 0.39 µM |
| N#Cc1c(-c2cccc(OC(F)(F)F)c2)cc(-c2ccco2)nc1N | 13% | 29% | – | 0.27 µM | Activity (Adenosine receptor A2a [7]): 260 nM |
| Nc1nc(-c2ccco2)c2ncn(C(=O)NCc3ccccc3)c2n1 | – | – | – | – | Ki (Adenosine receptor A2a [6]): 0.0011 µM |
| Cc1ccc(-c2cc(-c3ccco3)nc(N)c2C#N)o1 | 24% | – | 0.015 µM | 0.1 µM | Ki (Adenosine receptor A2b): 0.44 µM |
| N#Cc1c(-c2ccc(O)cc2)cc(-c2ccccc2)nc1N | 18% | 18% | – | 0.061 µM | Activity (Adenosine receptor A2a [2]): 17% |

Now from value to compound, other results behind:

| Activity [1] | Activity [3] | Ki (Adenosine receptor A2a [5]) | Ki (Adenosine receptor A1) | Compound | further results |
| --- | --- | --- | --- | --- | --- |
| 28% | 7% | 0.058 µM | 0.034 µM | N#Cc1c(-c2cccc(OC(F)(F)F)c2)cc(-c2ccccc2)nc1N | – |
| 21% | 33% | 0.14 µM | 0.048 µM | N#Cc1c(-c2ccc(Cl)cc2)cc(-c2ccco2)nc1N | – |
| 17% | 2% | – | – | CN(C)c1ccc(-c2cc(-c3ccco3)nc(N)c2C#N)cc1 | Activity (Adenosine receptor A2a [2]): 3.8%; Activity [4]: 11% |
| 21% | 33% | – | – | COc1ccc(-c2cc(-c3ccco3)nc(N)c2C#N)cc1 | – |
| 21% | 15% | – | – | Cc1ccc(-c2cc(-c3ccco3)nc(N)c2C#N)cc1 | Activity (Adenosine receptor A2a [2]): 45%; Activity [4]: 47% |
| 53% | 26% | 0.13 µM | 0.014 µM | N#Cc1c(-c2ccccc2)cc(-c2ccccc2)nc1N | – |
| 32% | 41% | 0.088 µM | 0.012 µM | N#Cc1c(-c2ccccc2)cc(-c2cccs2)nc1N | – |
| 18% | – | 0.14 µM | 0.064 µM | Cc1cccc(-c2cc(-c3ccco3)nc(N)c2C#N)c1 | Ki (Adenosine receptor A2b): 0.62 µM |
| 48% | 0% | – | 0.007 µM | N#Cc1c(-c2ccc3c(c2)OCO3)cc(-c2ccccc2)nc1N | Activity (Adenosine receptor A2a [2]): 34% |
| 20% | 31% | 0.092 µM | 0.25 µM | COc1ccc(-c2cc(-c3ccco3)nc(N)c2C#N)cc1OC | – |
| 0% | 35% | 0.64 µM | – | N#Cc1c(-c2ccccc2)cc(-c2ccc[nH]2)nc1N | Activity [4]: 28% |
| 33% | 37% | 0.13 µM | 0.015 µM | Cc1cccc(-c2cc(-c3ccccc3)nc(N)c2C#N)c1 | – |
| 14% | 12% | 0.19 µM | 0.068 µM | N#Cc1c(-c2ccc(Cl)c(Cl)c2)cc(-c2ccco2)nc1N | – |
| 31% | 19% | 0.032 µM | 0.043 µM | N#Cc1c(-c2cccs2)cc(-c2cccs2)nc1N | – |
